Assay results taken from patent US8802664B2 (Bioproject, priority 2010, dated 2014).

biological target: T1, human H4 receptor (Homo sapiens, UniProt Q9H3N8); test: [3H]Histamine binding on membranes of CHO cells stably expressing human H4 receptor
T1 construct: expressed in transfected cells
How it was run: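 Membranes from sub-confluent CHO-hH4 cells, 20 μg protein per well, were incubated in 50 mM Tris/HCl, 0.5 mM EDTA, pH 7.4. Nonspecific binding was defined with 10 μM JNJ 7777120. Bound radioactivity was collected on PEI-soaked GF/B filters and counted by liquid scintillation.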

T1 sequence (Q9H3N8 whole entry): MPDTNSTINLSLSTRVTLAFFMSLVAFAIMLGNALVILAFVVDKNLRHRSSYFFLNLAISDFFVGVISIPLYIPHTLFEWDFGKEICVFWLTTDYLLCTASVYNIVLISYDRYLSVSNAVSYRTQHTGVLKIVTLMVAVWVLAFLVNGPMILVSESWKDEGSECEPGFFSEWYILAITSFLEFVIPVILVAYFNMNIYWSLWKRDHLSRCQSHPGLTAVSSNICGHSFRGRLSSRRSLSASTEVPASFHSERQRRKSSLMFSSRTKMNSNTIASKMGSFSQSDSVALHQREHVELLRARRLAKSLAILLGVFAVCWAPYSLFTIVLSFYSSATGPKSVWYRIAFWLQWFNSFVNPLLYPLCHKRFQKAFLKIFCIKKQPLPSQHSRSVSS

SMILES | Ki or IC50 activity class [nM]
CCCCCCc1cccc(C(NC2CCN(C)CC2)c2nc3ccccc3[nH]2)c1 (stereo not shown) [Example 76, [(1H-benzimidazol-2-yl)(3-hexylphenyl)methyl](1-methylpiperidin-4-yl)amine] | < 300
CN1CCC(OC(c2cccc(N3CCC(N)C3)c2)c2nc3ccccc3s2)CC1 (stereo not shown) [Example 423, 1-{3-[benzothiazol-2-yl(1-methylpiperidin-4-yloxy)methyl]phenyl}pyrrolidin-3-ylamine] | < 300
Cc1ccc(C(OC2CCN(C)CC2)c2nc3ccccc3[nH]2)c(F)c1 (stereo not shown) [Example 513] | < 30
CN1CCC(OC(c2cccc(N3CCC(O)C3)c2)c2nc3ccccc3s2)CC1 (stereo not shown) [Example 406, 1-{3-[benzothiazol-2-yl(1-methylpiperidin-4-yloxy)methyl]phenyl}pyrrolidin-3-ol] | < 30
CN1CC(COC(c2cccc(SCCCCN)c2)c2nc3ccccc3[nH]2)C1 (stereo not shown) [Example 507, 4-{3-[(1H-benzimidazol-2-yl)(1-methylazetidin-3-ylmethoxy)methyl]phenylsulfanyl}butylamine] | < 30
CSCCOc1cccc(C(OC2CCN(C)CC2)c2nc3ccccc3s2)c1 (stereo not shown) [Example 250, 2-{(1-methylpiperidin-4-yloxy)[3-(2-methylsulfanyl-ethoxy)phenyl]methyl}benzothiazole] | < 300
CN1CCC(NC(c2cccc(SCc3ccccc3)c2)c2nc3ccccc3[nH]2)CC1 (stereo not shown) [Example 104, [(1H-benzimidazol-2-yl)(3-benzylsulfanylphenyl)methyl](1-methylpiperidin-4-yl)amine] | < 30
CN1CCC(OC(c2ccc3c(c2)CCO3)c2nc3ccccc3s2)CC1 (stereo not shown) [Example 32, 2-[(2,3-dihydrobenzofuran-5-yl)(1-methylpiperidin-4-yloxy)methyl]benzothiazole] | < 300
CN1CCC(NC(c2cccc(Br)c2)c2nc3ccccc3s2)CC1 (stereo not shown) [Example 82, [benzothiazol-2-yl(3-bromophenyl)methyl](1-methylpiperidin-4-yl)amine] | < 300
CC1=C(O)C(=NCCCCC#Cc2ccc(F)c(C(OC3CCN(C)CC3)c3nc4ccccc4[nH]3)c2)CC1 (stereo not shown) [Example 563, 5-(6-{3-[(1H-benzimidazol-2-yl)(1-methylpiperidin-4-yloxy)methyl]-4-fluorophenyl}hex-5-ynylimino)-2-methylcyclopent-1-enol] | < 300
CN1CCC(OC(c2cccc(OS(=O)(=O)C(F)(F)F)c2)c2nc3ccccc3s2)CC1 (stereo not shown) [Example 71, trifluoromethanesulfonic acid 3-[benzothiazol-2-yl(1-methylpiperidin-4-yloxy)methyl]phenyl ester] | < 300
c1csc(C(OC2CCNCC2)c2nc3ccccc3[nH]2)c1 (stereo not shown) [Example 544] | < 1000
CN1CCC(OC(c2cccc(CCCCCCN)c2)c2nc3ccccc3[nH]2)CC1 (stereo not shown) [Example 344, 6-{3-[(1H-benzimidazol-2-yl)(1-methylpiperidin-4-yloxy)methyl]phenyl}hexylamine] | < 300
CN1CCC(OC(c2cccc(SCC3CNC(=O)O3)c2)c2nc3ccccc3[nH]2)CC1 (stereo not shown) [Example 457] | < 30
CN1CCC(OC(c2ccc(F)c(OC(F)(F)F)c2)c2nc3ccccc3[nH]2)CC1 (stereo not shown) [Example 518] | < 1000
CN1CCC(OC(c2nc3ccccc3[nH]2)c2cc(Cl)ccc2F)CC1 (stereo not shown) [Example 496] | < 300
CN1CCC(OC(c2cccc(SCc3ccco3)c2)c2nc3ccccc3[nH]2)CC1 (stereo not shown) [Example 173, 2-[[3-(furan-2-ylmethylsulfanyl)phenyl](1-methylpiperidin-4-yloxy)methyl]-1H-benzimidazole] | < 300
CN1CCC(OC(c2cccc(N3CCC(O)CC3)c2)c2nc3ccccc3s2)CC1 (stereo not shown) [Example 411, 1-{3-[benzothiazol-2-yl(1-methylpiperidin-4-yloxy)methyl]phenyl}piperidin-4-ol] | < 1000
CN1CCC(OC(c2cccc(F)c2)c2nc3ccccc3s2)CC1 (stereo not shown) [Example 5] | < 300
CN1CCC(OC(c2cccc(OCCCN)c2)c2nc3ccccc3s2)CC1 (stereo not shown) [Example 311, 3-{3-[benzothiazol-2-yl(1-methylpiperidin-4-yloxy)methyl]phenoxy}propylamine] | < 300
CN1CCC(OC(c2cccc(CCCCCCNC(=N)N)c2)c2nc3ccccc3s2)CC1 (stereo not shown) [Example 363, N-(6-{3-[benzothiazol-2-yl(1-methylpiperidin-4-yloxy)methyl]phenyl}hexyl)guanidine] | < 300
CN1CCC(OC(c2cccc(SCC(=O)NCCN)c2)c2nc3cc(F)ccc3[nH]2)CC1 (stereo not shown) [Example 459] | < 30
CN1CCC(OC(c2cccc(OCCCN3CCN(C(=O)OC(C)(C)C)CC3)c2)c2nc3ccccc3s2)CC1 (stereo not shown) [Example 351, 4-(3-{3-[benzothiazol-2-yl(1-methylpiperidin-4-yloxy)methyl]phenoxy}propyl)piperazine-1-carboxylic acid tert-butyl ester] | < 1000

SMILES | Ki or IC50 activity class [nM]
CN1CCC(OC(c2cccc(OCC=CCN)c2)c2nc3ccccc3s2)CC1 (stereo not shown) [Example 431, 4-{3-[benzothiazol-2-yl(1-methylpiperidin-4-yloxy)methyl]phenoxy}but-2-enylamine] | < 30
CN1CCC(OC(c2cccc(SCCCc3cnc[nH]3)c2)c2nc3ccccc3[nH]2)CC1 (stereo not shown) [Example 398, 2-[{3-[3-(3H-imidazol-4-yl)propylsulfanyl]phenyl}(1-methylpiperidin-4-yloxy)methyl]-1H-benzimidazole] | < 300
CN1CCC(OC(c2cccc(C#CCN3C(=O)c4ccccc4C3=O)c2)c2nc3ccccc3[nH]2)CC1 (stereo not shown) [Example 189, 2-(3-{3-[(1H-benzimidazol-2-yl)(1-methylpiperidin-4-yloxy)methyl]phenyl}prop-2-ynyl)isoindole-1,3-dione] | < 300
CN1CCC(OC(c2cccc(CCCCCNC(=N)NC(=O)OC(C)(C)C)c2)c2nc3ccccc3[nH]2)CC1 (stereo not shown) [Example 335, N-tert-butoxycarbonyl-N′-(-{3-[(1H-benzimidazol-2-yl)(1-methylpiperidin-4-yloxy)methyl]phenyl}pentyl)guanidine] | < 300
CN1CCC(OC(c2cccc(C#CCN)c2)c2nc3ccccc3s2)CC1 (stereo not shown) [Example 296, 3-{3-[benzothiazol-2-yl(1-methylpiperidin-4-yloxy)methyl]phenyl}prop-2-ynylamine] | < 300
CN1CCC(OC(c2cccc(N3CC4CC(N)CC4C3)c2)c2nc3ccccc3s2)CC1 (stereo not shown) [Example 471] | < 300
CN1CCC(OC(c2cccc(SC(C)(C)C)c2)c2nc3ccccc3[nH]2)CC1 (stereo not shown) [Example 215, 2-[(3-tert-butylsulfanylphenyl)(1-methylpiperidin-4-yloxy)methyl]-1H-benzimidazole] | < 300
CN1CCC(OC(c2cccc(C=C3NC(=N)NC3=O)c2)c2nc3ccccc3[nH]2)CC1 (stereo not shown) [Example 505, 5-{3-[(1H-benzimidazol-2-yl)(1-methylpiperidin-4-yloxy)methyl]benzylidene}-2-iminoimidazolidin-4-one] | < 1000
COc1ccc(F)c(C(OCC2CCN(C)C2)c2nc3ccccc3[nH]2)c1 (stereo not shown) [Example 504] | < 30
CN1CCC(OC(c2nc3ccccc3s2)c2ccc(F)cc2F)CC1 (stereo not shown) [Example 12, 2-[(2,4-difluorophenyl)(1-methyl-piperidin-4-yloxy)methyl]-benzothiazole] | < 300
Cc1cc(C(OC2CCN(C)CC2)c2nc3ccccc3s2)ccc1F (stereo not shown) [Example 34, 2-[(4-fluoro-3-methylphenyl)(1-methylpiperidin-4-yloxy)methyl]benzothiazole] | < 300
CCN1CCC(OC(c2cccc(OCCN)c2)c2nc3ccccc3s2)CC1 (stereo not shown) [Example 290, 2-{3-[benzothiazol-2-yl(1-ethyl-piperidin-4-yloxy)methyl]phenoxy}ethylamine] | < 300
CN1CCC(OC(c2nc3ccccc3[nH]2)c2cc(OC(F)(F)F)ccc2Cl)CC1 (stereo not shown) [Example 524] | < 300
CN1CCC(OC(c2cccc(C#CCCCNC(=N)N)c2)c2nc3ccccc3s2)CC1 (stereo not shown) [Example 340, N-(5-{3-[benzothiazol-2-yl(1-methylpiperidin-4-yloxy)methyl]phenyl}pent-4-ynyl)guanidine] | < 30
CN1CCC(OC(c2cccc(N3CC4CN(C)CC4C3)c2)c2nc3ccccc3s2)CC1 (stereo not shown) [Example 485] | < 1000
CN1CCC(OC(c2cccc(OC3CC4CNCC4C3)c2)c2nc3ccccc3s2)CC1 (stereo not shown) [Example 466] | < 30
CN1CCC(NC(c2cccc(OCc3ccccc3F)c2)c2nc3ccccc3[nH]2)CC1 (stereo not shown) [Example 113, {(1H-benzimidazol-2-yl)[3-(2-fluorobenzyloxy)phenyl]methyl}(1-methylpiperidin-4-yl)amine] | < 30
CN1CCC(OC(c2cccc(CCCCN)c2)c2nc3ccccc3[nH]2)CC1 (stereo not shown) [Example 293, 4-{3-[(1H-benzimidazol-2-yl)(1-methylpiperidin-4-yloxy)methyl]phenyl}butylamine] | < 300
CN1CCC(OC(c2cccc(I)c2)c2nc3ccccc3s2)CC1 (single isomer, unassigned) [Example 117, 2-[(3-iodophenyl)(1-methylpiperidin-4-yloxy)methyl]benzothiazole] | < 30
CN1CC(COC(c2nc3ccccc3[nH]2)c2cc(OC(F)(F)F)ccc2F)C1 (stereo not shown) [Example 516] | < 300
COc1ccc(C(OC2CCN(C)CC2)c2nc3ccccc3s2)cc1 (stereo not shown) [Example 14, 2-[(4-methoxyphenyl)(1-methylpiperidin-4-yloxy)methyl]benzothiazole] | < 1000
Nc1ccc(C(OC2CCNCC2)c2nc3ccccc3[nH]2)cc1 (stereo not shown) [Example 456, 4-[(1H-benzimidazol-2-yl)(piperidin-4-yloxy)methyl]aniline] | < 1000
CN1CCC(OC(c2cccc(OCC=CCO)c2)c2nc3ccccc3s2)CC1 (stereo not shown) [Example 422, 4-{3-[benzothiazol-2-yl(1-methylpiperidin-4-yloxy)methyl]phenoxy}but-2-en-1-ol] | < 30
